One may read the IC50 as the concentration that gives 50% inhibition.

In test [1] the target is T1, human ferroportin (SLC40A1) (Homo sapiens, UniProt Q9NP59).
T1 sequence (Q9NP59 1-571): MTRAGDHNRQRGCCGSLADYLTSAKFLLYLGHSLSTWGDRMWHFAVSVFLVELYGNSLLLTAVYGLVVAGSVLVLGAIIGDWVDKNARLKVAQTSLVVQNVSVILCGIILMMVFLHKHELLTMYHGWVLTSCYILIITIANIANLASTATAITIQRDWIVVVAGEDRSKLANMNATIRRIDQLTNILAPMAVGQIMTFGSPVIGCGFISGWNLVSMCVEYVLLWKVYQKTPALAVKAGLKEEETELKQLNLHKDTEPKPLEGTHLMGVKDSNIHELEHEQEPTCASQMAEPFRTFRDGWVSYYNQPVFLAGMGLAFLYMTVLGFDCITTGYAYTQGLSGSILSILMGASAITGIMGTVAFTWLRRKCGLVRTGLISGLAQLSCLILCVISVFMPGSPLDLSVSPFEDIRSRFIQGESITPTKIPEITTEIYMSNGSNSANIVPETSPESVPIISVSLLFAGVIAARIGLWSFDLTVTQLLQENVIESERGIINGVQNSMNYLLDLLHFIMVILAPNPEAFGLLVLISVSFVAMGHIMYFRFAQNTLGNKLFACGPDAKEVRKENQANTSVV
Briefly: FPN activity assay: internalization/degradation of ferroportin-GFP in stably transfected HEK293 cells (decrease in GFP fluorescence). The class given is cell-based. The note with it: compound incubated at least 18 hours. The gist of the method:
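HEK293 cells stably expressing human ferroportin C-terminally fused to GFP were exposed to peptides for at least 18 h, at most 24 h. Internalization/degradation read as loss of GFP fluorescence; EC50 derived. Retro-inverse mini-hepcidin peptides used as control standards.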

The next test has as its target T2, ferroportin (Homo sapiens, UniProt Q9NP59).
T2 sequence (Q9NP59 1-571): T1 sequence (Q9NP59 1-571)
Briefly: T47D cell-based ferroportin internalization assay in presence of 0.5% mouse serum albumin (MSA). The settings on record: T47D cells. The gist of the method: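 T47D cells exposed 1 hr to peptide series (10 points from ~5 μM) premixed 30 min at room temperature with 0.5% mouse serum albumin, then 200 nM AF647-labelled ferroportin-binding peptide for 2 hr. Flow cytometry MFI of live singlets; IC50 by 4-parameter fit.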

Test [2] concerns the target human ferroportin (SLC40A1) fused in frame with GFP, stably expressed on HEK293 cells (human) (UniProt Q9NP59). Briefly: cell-based or functional assay.

For `CCCCCCCCCCCCCCCC(=O)NCCCCCC(=O)NCCCC[C@H](NC(=O)C[C@H](Cc1ccccc1)NC(=O)[C@@H]1CCC=CCC[C@H](NC(=O)CC(C)C)C(=O)N[C@@H]([C@@H](C)O)C(=O)N[C@@H](Cc2c[nH]cn2)C(=O)N[C@@H](C(c2ccccc2)c2ccccc2)C(=O)N2CCC[C@H]2C(=O)N[C@@H](C)C(=O)N[C@@H]([C@@H](C)CC)C(=O)N1)C(=O)N[C@@H](CC(C)(C)C)C(N)=O` [Compd 65], the IC50 lay within 0.01 to 0.1 µM in test [1] and 0.001 to 0.01 µM at ferroportin. Regarding `CCCCCCCCCCCCCCCC(=O)NCCCCCC(=O)NCCCC[C@H](NC(=O)C[C@H](Cc1ccccc1)NC(=O)[C@@H]1CCCC=CCC[C@@H](NC(=O)CC(C)C)C(=O)N[C@@H]([C@@H](C)O)C(=O)N[C@@H](Cc2c[nH]cn2)C(=O)N[C@@H](C(c2ccccc2)c2ccccc2)C(=O)N2CCC[C@H]2C(=O)N[C@@H](C)C(=O)N[C@@H]([C@@H](C)CC)C(=O)N1)C(=O)N[C@H](CCCCN)C(N)=O` [Compd 67], the results for the IC50 (in test [1]; on ferroportin) were 0.001 to 0.01 µM and 0.01 to 0.1 µM, respectively.

For the compound `CCCCCCCCCCCCCCCC(=O)NCCCCCC(=O)NCCCC[C@H](NC(=O)C[C@H](Cc1ccccc1)NC(=O)[C@@H]1CCC=CCC[C@@H](NC(=O)CC(C)C)C(=O)N[C@@H]([C@@H](C)O)C(=O)N[C@@H](Cc2c[nH]cn2)C(=O)N[C@@H](C(c2ccccc2)c2ccccc2)C(=O)N2CCC[C@H]2C(=O)N[C@@H](C)C(=O)N[C@@H]([C@@H](C)CC)C(=O)N1)C(=O)N[C@H](CCCCN)C(N)=O` [Compd 68], the IC50 fell in the range of 0.01 to 0.1 µM in test [1] and 0.1 to 0.5 µM at ferroportin. For `CCCCCCCCCCCCCCCC(=O)NCCCCCC(=O)NCCCC[C@H](NC(=O)C[C@H](Cc1ccccc1)NC(=O)[C@@H]1CCC=CCCC[C@@H](NC(=O)CC(C)C)C(=O)N[C@@H]([C@@H](C)O)C(=O)N[C@@H](Cc2c[nH]cn2)C(=O)N[C@@H](C(c2ccccc2)c2ccccc2)C(=O)N2CCC[C@H]2C(=O)N[C@@H](C)C(=O)N[C@@H]([C@@H](C)CC)C(=O)N1)C(=O)N[C@H](CCCCN)C(N)=O` [Compd 69], the half-maximal inhibitory concentration (IC50) in test [1] was 0.001 to 0.01 µM; on ferroportin it was more than 0.5 µM.

With `CCCCCCCCCCCCCCCC(=O)NCCCCCC(=O)NCCCC[C@H](NC(=O)C[C@H](Cc1ccccc1)NC(=O)[C@@H]1CCCC=CCCC[C@@H](NC(=O)CC(C)C)C(=O)N[C@@H]([C@@H](C)O)C(=O)N[C@@H](Cc2c[nH]cn2)C(=O)N[C@@H](C(c2ccccc2)c2ccccc2)C(=O)N2CCC[C@H]2C(=O)N[C@@H](C)C(=O)N[C@@H]([C@@H](C)CC)C(=O)N1)C(=O)N[C@H](CCCCN)C(N)=O` [Compd 70], the half-inhibitory concentration (IC50) fell in the range of 0.01 to 0.1 µM in test [1] and 0.001 to 0.01 µM at ferroportin. With `CCCCCCCCCCCCCCCC(=O)NCCCCCC(=O)NCCCC[C@H](NC(=O)C[C@H](Cc1ccccc1)NC(=O)[C@H]1CCCC=CCC[C@@H](NC(=O)CC(C)C)C(=O)N[C@@H]([C@@H](C)O)C(=O)N[C@@H](Cc2c[nH]cn2)C(=O)N[C@@H](C(c2ccccc2)c2ccccc2)C(=O)N2CCC[C@H]2C(=O)N[C@@H](C)C(=O)N[C@@H]([C@@H](C)CC)C(=O)N1)C(=O)N[C@H](CCCCN)C(N)=O` [Compd 71], the half-maximal inhibitory concentration (IC50) (in test [1]; at ferroportin) was 0.1 to 0.5 µM each time. For `CCCCCCCCCCCCCCCC(=O)NCCCCCC(=O)NCCCC[C@H](NC(=O)C[C@H](Cc1ccccc1)NC(=O)[C@H]1CCC=CCC[C@@H](NC(=O)CC(C)C)C(=O)N[C@@H]([C@@H](C)O)C(=O)N[C@@H](Cc2c[nH]cn2)C(=O)N[C@@H](C(c2ccccc2)c2ccccc2)C(=O)N2CCC[C@H]2C(=O)N[C@@H](C)C(=O)N[C@@H]([C@@H](C)CC)C(=O)N1)C(=O)N[C@H](CCCCN)C(N)=O` [Compd 72], the 50% inhibitory concentration (IC50) was in the range of 0.01 to 0.1 µM in test [1] and 0.1 to 0.5 µM on ferroportin. As for `CCCCCCCCCCCCCCCC(=O)NCCCCCC(=O)NCCCC[C@H](NC(=O)C[C@H](Cc1ccccc1)NC(=O)[C@H]1CCCC=CCCC[C@@H](NC(=O)CC(C)C)C(=O)N[C@@H]([C@@H](C)O)C(=O)N[C@@H](Cc2c[nH]cn2)C(=O)N[C@@H](C(c2ccccc2)c2ccccc2)C(=O)N2CCC[C@H]2C(=O)N[C@@H](C)C(=O)N[C@@H]([C@@H](C)CC)C(=O)N1)C(=O)N[C@H](CCCCN)C(N)=O` [Compd 73], the IC50 was 0.1 to 0.5 µM in test [1] and more than 0.5 µM on ferroportin.

In the case of `CCCCCCCCCCCCCCCC(=O)NCCCCCC(=O)NCCCC[C@H](NC(=O)C[C@H](Cc1ccccc1)NC(=O)[C@H]1CCC=CCCC[C@@H](NC(=O)CC(C)C)C(=O)N[C@@H]([C@@H](C)O)C(=O)N[C@@H](Cc2c[nH]cn2)C(=O)N[C@@H](C(c2ccccc2)c2ccccc2)C(=O)N2CCC[C@H]2C(=O)N[C@@H](C)C(=O)N[C@@H]([C@@H](C)CC)C(=O)N1)C(=O)N[C@H](CCCCN)C(N)=O` [Compd 74], the half-maximal inhibitory concentration (IC50) is 0.1 to 0.5 µM in test [1] and more than 0.5 µM on ferroportin. In the case of `CCCCCCCCCCCCCCCC(=O)NCCCCCC(=O)NCCCC[C@H](NC(=O)C[C@H](Cc1ccccc1)NC(=O)[C@H]1CCCC=CCC[C@H](NC(=O)CC(C)C)C(=O)N[C@@H]([C@@H](C)O)C(=O)N[C@@H](Cc2c[nH]cn2)C(=O)N[C@@H](C(c2ccccc2)c2ccccc2)C(=O)N2CCC[C@H]2C(=O)N[C@@H](C)C(=O)N[C@@H]([C@@H](C)CC)C(=O)N1)C(=O)N[C@H](CCCCN)C(N)=O` [Compd 75], the concentration for half-maximal inhibition (IC50) (in test [1]; on ferroportin) was 0.01 to 0.1 µM throughout. Consider `CCCCCCCCCCCCCCCC(=O)NCCCCCC(=O)NCCCC[C@H](NC(=O)C[C@H](Cc1ccccc1)NC(=O)[C@H]1CCC=CCC[C@H](NC(=O)CC(C)C)C(=O)N[C@@H]([C@@H](C)O)C(=O)N[C@@H](Cc2c[nH]cn2)C(=O)N[C@@H](C(c2ccccc2)c2ccccc2)C(=O)N2CCC[C@H]2C(=O)N[C@@H](C)C(=O)N[C@@H]([C@@H](C)CC)C(=O)N1)C(=O)N[C@H](CCCCN)C(N)=O` [Compd 76], for which the IC50 (in test [1]; at ferroportin) was 0.01 to 0.1 µM in each case.

`CCCCCCCCCCCCCCCC(=O)NCCCCCC(=O)NCCCC[C@H](NC(=O)C[C@H](Cc1ccccc1)NC(=O)[C@H]1CCCC=CCCC[C@H](NC(=O)CC(C)C)C(=O)N[C@@H]([C@@H](C)O)C(=O)N[C@@H](Cc2c[nH]cn2)C(=O)N[C@@H](C(c2ccccc2)c2ccccc2)C(=O)N2CCC[C@H]2C(=O)N[C@@H](C)C(=O)N[C@@H]([C@@H](C)CC)C(=O)N1)C(=O)N[C@H](CCCCN)C(N)=O` [Compd 77]: the 50% inhibitory concentration (IC50) (in test [1]; at ferroportin) was 0.001 to 0.01 µM throughout.

Turning to `CCCCCCCCCCCCCCCC(=O)NCCCCCC(=O)NCCCC[C@H](NC(=O)C[C@H](Cc1ccccc1)NC(=O)[C@H]1CCC=CCCC[C@H](NC(=O)CC(C)C)C(=O)N[C@@H]([C@@H](C)O)C(=O)N[C@@H](Cc2c[nH]cn2)C(=O)N[C@@H](C(c2ccccc2)c2ccccc2)C(=O)N2CCC[C@H]2C(=O)N[C@@H](C)C(=O)N[C@@H]([C@@H](C)CC)C(=O)N1)C(=O)N[C@H](CCCCN)C(N)=O` [Compd 78], the IC50 in test [1] is 0.01 to 0.1 µM; on ferroportin, 0.1 to 0.5 µM.

As to `CCCCCCCCCCCCCCCC(=O)NCCCCCC(=O)NCCCC[C@H](NC(=O)C[C@H](Cc1ccccc1)NC(=O)[C@@H]1CCC=CCC[C@H](NC(=O)CC(C)C)C(=O)N[C@@H]([C@@H](C)O)C(=O)N[C@@H](Cc2c[nH]cn2)C(=O)N[C@@H](C(c2ccccc2)c2ccccc2)C(=O)N2CCC[C@H]2C(=O)N[C@@H](C)C(=O)N[C@@H]([C@@H](C)CC)C(=O)N1)C(=O)N[C@H](CCCCN)C(N)=O` [Peptide ID #16, Isovaleric Acid-[Ala(2)]-T-H-[Dpa]-P-A-I-[Ala(2)]-[bhPhe]-[Lys(Ahx_Palm)]-[(D)Lys]-NH2], the IC50 in test [1] was 0.001 to 0.01 µM; at ferroportin, 0.01 to 0.1 µM. Compound Hepcidin (ligand) yielded a Potency EC50 in test [2] of 0.034 µM. In the case of Mini-Hepcidin 1-9 (peptide), in test [2], the Potency EC50 was determined as 0.712 µM. With RI-Mini Hepcidin (peptide), in test [2], the Potency EC50 (nM) was more than 10000 nM.
